Reference: patent US5244883A, “Nonapeptide bombesin antagonists” (The Administrators of the Tulane Educational Fund, priority 1990, dated 1993)
Where a SMILES comes first, the peptide text is derived from it. [ ]: non-standard residue; d: D form. The star is where a group is joined. His(τ-Bzl) = N[C@@H](Cc1cn(Cc2ccccc2)cn1)C(=O)O; X2 = CC(C)C[C@@H](CN[C@@H](CC(C)C)C(N)=O)N*; dTpi = O=C(O)[C@H]1Cc2c([nH]c3ccccc23)CN1

Target: T1, GRP receptors on Swiss 3T3 cells (Mus musculus, UniProt P21729)
T1 construct: conducted in 24-well tissue culture plates (GIBCO) using Swiss 3T3 cells; endogenous in cells; host or cells: Murine Swiss 3T3 fibroblasts (intact confluent, quiescent cells)
Experiment: Receptor binding assay: displacement of 125I-GRP(14-27) on Swiss 3T3 cells
Set-up: species or system Murine
Conditions: for Ka: association constant, N.D.=NO DISPLACEMENT; for Ka / Kd: 0.2 nM 125I-GRP(14-27), Swiss 3T3 cells, 37° C. 30 min; for IC50: calculated by Cheng and Prussoff equation IC50=Kc(1+L/Kh), 0.2 nM radioligand
Protocol: (A) Receptor Binding Assay
Binding of ^125 I-GRP(14-27) and displacement by bombesin antagonists were conducted in 24-well tissue culture plates (GIBCO) using Swiss 3T3 cells. Murine Swiss 3T3 fibroblasts were maintained by weekly passage in DMEM containing 10% FCBS and antimycotics. Cultures were incubated in 5% CO2 in air at 37° C. The wells were seeded with 10^5 cells/well (viability >95%), grown to confluence and quiescency. The binding procedure was conducted 7 days after seeding. The cells were washed 2 times with 0.5 ml of binding buffer (Dulbecco's modified Eagle's medium containing […] (pH 7.4), 0.2% BSA and 100 mcg/ml bacitracin). The cells were then incubated with 0.2 nM ^125 I-GRP (14-27) in the presence or absence of different concentrations of antagonists (6×10^-11 -6×10^-6 M, total volume 0.4 ml).
According to Zachary and Rozengurt (1985) and Layton et al., (1988), binding of ^125 I-GRP at 37° C. reached a maximum value at 30 min and decreased afterwards; so, the cells were incubated at 37° C. for 30 min. After that, the cells were washed 2 times with ice-cold (4° C.) binding buffer and 2 times with the ice-cold phosphate-buffered saline (PBS,mM): NaCl 138, KCl 2.8, Na2 HPO4 8, KH2 PO4 1.45, CaCl2 0.91, MgCl2 0.49. Washed cultures were extracted in 0.5 ml of 0.5M NaOH and transferred to tubes for counting. The wells were washed once with 0.5 ml distilled water (sterile), and the washing were added to the appropriate tubes. Then the radio-activity of the samples was counted in an automatic gamma counter (Micromedic System, Inc., Huntsville, Ala.).
The Ligand - PC computerized curve fitting program of Munson and Rodbard was used to determine the types of receptor binding, dissociation constant (Kd), association constant (Ka), the maximal binding capacity of receptors (Bmax) and half-maximal inhibition (IC50).
IC50 values represent concentrations of antagonists causing half-maximal inhibition of 0.2 nM GRP(14-27) stimulated growth. Dissociation constant and maximal binding capacity of ^125 I-GRP (14-27) in our experiments were 1.32 nm and 0.769 pm/mg protein, respectively, which were similar to those reported for ^125 I-GRP and ^125 I-Tyr^4 -bombesin. Binding characteristics of GRP receptors on 3T3 cells in these experiments agree well with values obtained for bombesin binding to pancreatic acinar (Jensen et al., 1978) and pituitary cells (Westendorf and Schonbrunn, 1983).
IC50 is the concentration of unlabelled ligand that displaced half the specific radioligand binding. It is calculated according to the equation of Cheng and Prussoff (1973): IC50 =Kc (1+L/Kh), where Kc and Kh are the dissociation constants of unlabelled (cold) and labelled (hot) ligand respectively, and L is the concentration of radioligand used.

T1 sequence (P21729 whole entry): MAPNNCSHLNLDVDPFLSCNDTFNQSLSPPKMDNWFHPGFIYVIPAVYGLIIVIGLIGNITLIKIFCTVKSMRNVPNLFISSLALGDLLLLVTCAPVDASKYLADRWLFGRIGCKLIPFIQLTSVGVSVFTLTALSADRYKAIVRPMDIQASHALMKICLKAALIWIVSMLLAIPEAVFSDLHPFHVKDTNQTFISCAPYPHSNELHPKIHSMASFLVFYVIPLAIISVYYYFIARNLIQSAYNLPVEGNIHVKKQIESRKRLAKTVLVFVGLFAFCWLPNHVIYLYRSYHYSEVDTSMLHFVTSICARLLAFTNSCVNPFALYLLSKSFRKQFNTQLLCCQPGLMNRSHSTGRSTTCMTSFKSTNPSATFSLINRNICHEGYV

maximal binding capacity of 125I-GRP(14-27) (radioligand on Swiss 3T3 cells)	Ka	Kd	IC50	SMILES
–	–	0.9 nM	1.14 nM	CC(C)C[C@@H](CN1Cc2[nH]c3ccccc3c2C[C@H]1C(N)=O)NC(=O)[C@H](Cc1c[nH]cn1)NC(=O)CNC(=O)[C@@H](NC(=O)[C@H](C)NC(=O)[C@H](Cc1c[nH]c2ccccc12)NC(=O)[C@H](CCC(N)=O)NC(=O)[C@@H]1Cc2c([nH]c3ccccc23)CN1)C(C)C [Peptide 22, Tpi--Gln--Trp--Ala--Val--Gly--His--Leu-psi-Tpi--NH2]
–	–	22 nM	25.3 nM	CC(C)C[C@@H](CN1Cc2[nH]c3ccccc3c2C[C@H]1C(N)=O)NC(=O)[C@H](Cc1c[nH]cn1)NC(=O)CNC(=O)[C@@H](NC(=O)[C@H](C)NC(=O)[C@H](Cc1c[nH]c2ccccc12)NC(=O)[C@H](CCC(N)=O)NC(=O)[C@H]1Cc2c([nH]c3ccccc23)CN1)C(C)C [Peptide 26, D--Tpi--Gln--Trp--Ala--Val--Gly--His--Leu-psi-Tpi--NH2]
–	–	8 nM	9.16 nM	CC(C)C[C@@H](CN[C@@H](Cc1c[nH]c2ccccc12)C(N)=O)NC(=O)[C@H](Cc1c[nH]cn1)NC(=O)CNC(=O)[C@@H](NC(=O)[C@H](C)NC(=O)[C@H](Cc1c[nH]c2ccccc12)NC(=O)[C@H](CCC(N)=O)NC(=O)[C@H](N)Cc1ccccc1)C(C)C [Peptide 28, D--Phe--Gln--Trp--Ala--Val--Gly--His--Leu-psi-Trp--NH2]
–	–	526 nM	605 nM	CC(C)C[C@@H](CN[C@@H](Cc1c[nH]c2ccccc12)C(N)=O)NC(=O)[C@H](Cc1c[nH]cn1)NC(=O)CNC(=O)[C@@H](NC(=O)[C@H](C)NC(=O)[C@H](Cc1c[nH]c2ccccc12)NC(=O)[C@H](CCC(N)=O)NC(=O)[C@H](N)Cc1c[nH]c2ccccc12)C(C)C [Peptide 29, D--Trp--Gln--Trp--Ala--Val--Gly--His--Leu-psi-Trp--NH2]
–	–	4 nM	5.15 nM	CC(C)C[C@@H](CN[C@@H](Cc1c[nH]c2ccccc12)C(N)=O)NC(=O)[C@H](Cc1c[nH]cn1)NC(=O)CNC(=O)[C@@H](NC(=O)[C@H](C)NC(=O)[C@H](Cc1c[nH]c2ccccc12)NC(=O)[C@H](CCC(N)=O)NC(=O)[C@H]1Cc2c([nH]c3ccccc23)CN1)C(C)C [Peptide 30, D--Tpi--Gln--Trp--Ala--Val--Gly--His--Leu-psi-Trp--NH2]

The next lines start with the compound.

SMILES	maximal binding capacity of 125I-GRP(14-27) (radioligand on Swiss 3T3 cells)	Ka	Kd	IC50
CSCC[C@H](NC(=O)[C@H](CC(C)C)NC(=O)[C@H](Cc1c[nH]cn1)NC(=O)CNC(=O)[C@@H](NC(=O)[C@H](C)NC(=O)[C@H](Cc1c[nH]c2ccccc12)NC(=O)[C@H](Cc1c[nH]cn1)NC(=O)[C@H](CC(N)=O)NC(=O)CNC(=O)[C@H](CCCNC(=N)N)NC(=O)[C@@H]1CCCN1C(=O)[C@H](Cc1ccc(O)cc1)NC(=O)[C@@H](N)CCSC)C(C)C)C(N)=O [125I-GRP (14-27), reference compound]	0.769 pm/mg protein	–	–	–
CSCC[C@H](NC(=O)[C@H](CC(C)C)NC(=O)[C@H](Cc1c[nH]cn1)NC(=O)CNC(=O)[C@@H](NC(=O)[C@H](C)NC(=O)[C@H](Cc1c[nH]c2ccccc12)NC(=O)[C@H](Cc1c[nH]cn1)NC(=O)[C@H](CC(N)=O)NC(=O)CNC(=O)[C@H](CCCNC(=N)N)NC(=O)[C@@H]1CCCN1C(=O)[C@H](Cc1ccc(O)cc1)NC(=O)[C@@H](N)CCSC)C(C)C)C(N)=O [GRP(14-27), reference compound]	–	0.758 ± 0.23 nM⁻¹	–	–
CC(C)C[C@@H](CN[C@@H](CC(C)C)C(N)=O)NC(=O)[C@H](Cc1c[nH]cn1)NC(=O)CNC(=O)[C@@H](NC(=O)[C@H](C)NC(=O)[C@H](Cc1c[nH]c2ccccc12)NC(=O)[C@H](CCC(N)=O)NC(=O)[C@H](N)Cc1c[nH]c2ccccc12)C(C)C [Peptide 2, D--Trp--Gln--Trp--Ala--Val--Gly--His--Leu-psi-Leu--NH2]	–	–	10.6 nM	12.2 nM
CC(C)C[C@@H](CN[C@@H](CC(C)C)C(N)=O)NC(=O)[C@H](Cc1c[nH]cn1)NC(=O)CNC(=O)[C@@H](NC(=O)[C@H](C)NC(=O)[C@H](Cc1c[nH]c2ccccc12)NC(=O)[C@H](CCC(N)=O)NC(=O)[C@H]1Cc2c([nH]c3ccccc23)CN1)C(C)C [Peptide 5, D--Tpi--Gln--Trp--Ala--Val--Gly--His--Leu-psi-Leu--NH2]	–	–	8 nM	9.2 nM
CC(C)C[C@@H](CN[C@@H](CC(C)C)C(N)=O)NC(=O)[C@H](Cc1c[nH]cn1)NC(=O)CNC(=O)[C@@H](NC(=O)[C@H](C)NC(=O)[C@H](Cc1c[nH]c2ccccc12)NC(=O)[C@H](Cc1cn(Cc2ccccc2)cn1)NC(=O)[C@H]1Cc2c([nH]c3ccccc23)CN1)C(C)C [Peptide 8, D--Tpi--His(Bz)--Trp--Ala--Val--Gly--His--Leu-psi-Leu--NH2] (H-[dTpi][His(τ-Bzl)]WAVGH-X2)	–	0.014 nM⁻¹	–	–
CC(C)C[C@@H](CN[C@@H](Cc1ccccc1)C(N)=O)NC(=O)[C@H](Cc1c[nH]cn1)NC(=O)CNC(=O)[C@@H](NC(=O)[C@H](C)NC(=O)[C@H](Cc1c[nH]c2ccccc12)NC(=O)[C@H](CCC(N)=O)NC(=O)[C@H](N)Cc1c[nH]c2ccccc12)C(C)C [Peptide 10, D--Trp--Gln--Trp--Ala--Val--Gly--His--Leu-psi-Phe--NH2]	–	–	1 nM	1.15 nM
CNC(=O)CC[C@H](NC(=O)[C@H](N)Cc1c[nH]c2ccccc12)C(=O)N[C@@H](Cc1c[nH]c2ccccc12)C(=O)N[C@@H](C)C(=O)N[C@H](C(=O)NCC(=O)N[C@@H](Cc1c[nH]cn1)C(=O)N[C@H](CN[C@@H](Cc1ccccc1)C(N)=O)CC(C)C)C(C)C [Peptide 11, D--Trp--Glu(MeNH)--Trp--Ala--Val--Gly--His--Leu-psi-Phe--NH2]	–	–	5 nM	5.75 nM
CC(C)C[C@@H](CN[C@@H](Cc1ccccc1)C(N)=O)NC(=O)[C@H](Cc1c[nH]cn1)NC(=O)CNC(=O)[C@@H](NC(=O)[C@H](C)NC(=O)[C@H](Cc1c[nH]c2ccccc12)NC(=O)[C@H](CCC(N)=O)NC(=O)[C@H]1Cc2c([nH]c3ccccc23)CN1)C(C)C [Peptide 12, D--Tpi--Gln--Trp--Ala--Val--Gly--His--Leu-psi-Phe--NH2] (HELM PEPTIDE1{[O=C([C@H]1Cc2c([nH]c3ccccc23)CN1)[*:2]].Q.W.A.V.G.H.[CC(C)C[C@@H](CN[C@@H](Cc1ccccc1)C(N)=O)N[*:1]]}$$$$V2.0)	–	0.014 nM⁻¹	–	–
CC(C)C[C@@H](CN1Cc2[nH]c3ccccc3c2C[C@H]1C(N)=O)NC(=O)[C@H](Cc1c[nH]cn1)NC(=O)CNC(=O)[C@@H](NC(=O)[C@H](C)NC(=O)[C@H](Cc1c[nH]c2ccccc12)NC(=O)[C@H](CCC(N)=O)NC(=O)[C@H](N)Cc1ccccc1)C(C)C [Peptide 17, D--Phe--Gln--Trp--Ala--Val--Gly--His--Leu-psi-Tpi--NH2]	–	–	1 nM	1.2 nM
CC(C)C[C@@H](CN1Cc2[nH]c3ccccc3c2C[C@H]1C(N)=O)NC(=O)[C@H](Cc1c[nH]cn1)NC(=O)CNC(=O)[C@@H](NC(=O)[C@H](C)NC(=O)[C@H](Cc1c[nH]c2ccccc12)NC(=O)[C@H](CCC(N)=O)NC(=O)[C@H](N)Cc1c[nH]c2ccccc12)C(C)C [Peptide 18, D--Trp--Gln--Trp--Ala--Val--Gly--His--Leu-psi-Tpi--NH2]	–	–	4 nM	4.6 nM
COc1ccc(CCC(=O)N[C@@H](CCC(N)=O)C(=O)N[C@@H](Cc2c[nH]c3ccccc23)C(=O)N[C@@H](C)C(=O)N[C@H](C(=O)NCC(=O)N[C@@H](Cc2c[nH]cn2)C(=O)N[C@H](CN[C@@H](Cc2c[nH]c3ccccc23)C(N)=O)CC(C)C)C(C)C)cc1 [Peptide 27, Mpp--Gln--Trp--Ala--Val--Gly--His--Leu-psi-Trp--NH2] (HELM PEPTIDE1{[COc1ccc(CCC(=O)[*:2])cc1].Q.W.A.V.G.H.[CC(C)C[C@@H](CN[C@@H](Cc1c[nH]c2ccccc12)C(N)=O)N[*:1]]}$$$$V2.0)	–	0.013 nM⁻¹	–	–
